Data reported in patent publication US6875851B1 (priority 1999, dated 2005).
Values joined by “and” are separate entries in the source; they are usually repeats but may differ in a detail not shown here. Identical values can stand only once. “Also recorded” adds a separate entry of the source. Like-named read-outs stand apart in the source and are kept apart here. Where no end group is shown, it is not given here. [ ]: non-standard residue; d: D form. The star is where a group is joined. pNA = O=[N+]([O-])c1ccc(N*)cc1; Cbz = O=C(OCc1ccccc1)*

Columns and labels:
DPP IV [1] = assay type: biochemical, P. gingivalis; details: pH 7.6
PTP-A [2] = assay type: biochemical, P. gingivalis; details: for Residual activity of PTP-A, %: pH 7.6
PTP-A [3] = assay type: biochemical, P. gingivalis; details: enzyme:substrate 1:100, 3 hours or 24 hours, 200 mM HEPES, pH 7.5, 37° C.; for Cleavage site mediated by PTP-A: 1 μg PTP-A
DPP IV [4] = assay: Cleavage specificity of DPP IV on synthetic peptides; assay type: biochemical, P. gingivalis; details: for Cleavage site mediated by DPP IV: same conditions as those used for PTP-A
Experimental: Enzyme Specificity—Peptides were incubated with 1 μg PTP-A at an enzyme:substrate molar ratio of 1:100 for 3 hours or 24 hours in 50 μl of 200 mM HEPES, pH 7.5, at 37° C., and the reaction stopped by acidification with trifluoroacetic acid. The samples were then subjected to reverse-phase high pressure liquid chromatography using a μBondapak C-18 column (3.9×300 mm) (Waters, Millford, Mass.) and an acetonitrile gradient (0-80% in 0.075% trifluoroacetic acid in 50 min). Each peak, detected at 220 nm, was collected, lyophilized, redissolved in 50% (volume/volume) methanol, 0.1% acetic acid and subjected to analysis by mass spectrometry.
Mass Spectrometry—A Finnigan MAT 95S, sector mass spectrometer (Finnigan MAT, Bremen, Germany) equipped with an electrospray source (ESI) was used operated essentially as described previously (Stenfors, C., et al., (1997) J. Biol. Chem. 272, 5747-5751). Peptides were identified by fitting of the obtained spectra to specific sequences using an Internet application program MsFit available at http://falcon.ludwig.ucl.ac.uk/msfit.html.

PTP-A [5] = assay type: biochemical, P. gingivalis; details: 1 mM substrate, 0.2 M HEPES, pH 7.5 at 37° C.
Target sequence in this assay (Q7MUW6 81-732 limits assumed): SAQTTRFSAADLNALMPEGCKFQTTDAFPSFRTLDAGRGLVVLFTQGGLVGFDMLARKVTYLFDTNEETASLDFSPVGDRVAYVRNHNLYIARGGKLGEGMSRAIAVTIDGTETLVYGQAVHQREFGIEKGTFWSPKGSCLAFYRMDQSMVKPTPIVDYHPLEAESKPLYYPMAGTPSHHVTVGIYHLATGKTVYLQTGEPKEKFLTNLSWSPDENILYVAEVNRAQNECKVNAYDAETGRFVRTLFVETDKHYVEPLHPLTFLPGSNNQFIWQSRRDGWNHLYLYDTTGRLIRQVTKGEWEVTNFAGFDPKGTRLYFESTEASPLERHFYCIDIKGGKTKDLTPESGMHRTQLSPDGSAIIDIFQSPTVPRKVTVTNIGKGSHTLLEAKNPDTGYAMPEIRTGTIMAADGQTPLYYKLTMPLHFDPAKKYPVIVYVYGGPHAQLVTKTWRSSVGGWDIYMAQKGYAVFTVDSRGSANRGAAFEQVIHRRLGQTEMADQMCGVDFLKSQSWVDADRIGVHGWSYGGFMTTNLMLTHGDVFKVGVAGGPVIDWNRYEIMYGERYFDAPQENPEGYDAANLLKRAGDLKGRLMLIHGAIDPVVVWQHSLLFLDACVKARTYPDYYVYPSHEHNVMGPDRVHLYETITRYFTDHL

P. gingivalis = assay type: cell-based; details: for P. gingivalis growth (OD600): 37° C.
PTP-A [6] = assay type: biochemical, P. gingivalis

With `O=C(O)CN(CCN(CC(=O)O)CC(=O)O)CC(=O)O` [EDTA] the “Residual activity of DPP IV, %” value (DPP IV [1]) was 100% and the “Residual activity of PTP-A, %” value (PTP-A [2]) was 100%.
In the case of H-YRPPGFSPFR [Peptide 4], the “Cleavage of peptide by PTP-A (in words)” value (PTP-A [3]) is reported as “significant exception”.
For IGVHGWXYGGFMTINL [SEQ ID NO:24], the “Cleavage by DPP IV (in words)” value (DPP IV [4]) was “found to cleave”.
In the case of `c1cnc2c(c1)ccc1cccnc12` [1,10-orthophenanthroline], the “Residual activity of DPP IV, %” value (DPP IV [1]) is reported as 100% and the “Residual activity of PTP-A, %” value (PTP-A [2]) is reported as 93% and 100%.
For “H-Arg-Pro-Pro-↓-Gly-Phe-Ser-Pro-Phe-Arg (RPPGFSPFR) [Peptide 1]”, the “Cleavage site mediated by PTP-A” value (PTP-A [3]) was “H-Arg-Pro-Pro-↓-Gly-Phe-Ser-Pro-Phe-Arg”.
“H-Val-Glu-Pro-↓-Ile-Pro-Tyr (VEPIPY) [Peptide 10]” was tested, and the “Cleavage site mediated by PTP-A” value (PTP-A [3]) was “H-Val-Glu-Pro-↓-Ile-Pro-Tyr”.
In the case of `NC(=O)CI` [Iodoacetamide], the “Residual activity of DPP IV, %” value (DPP IV [1]) is reported as 100%, the “Effect on PTP-A amidolytic activity (in words)” value (“Effect” for short) (PTP-A [2]) is reported as “stimulated enzyme amidolytic activity about two-fold” and the “Residual activity of PTP-A, %” value (PTP-A [2]) is reported as 100%.
With Cbz-Gly-Pro-pNA the “Hydrolysis of chromogenic substrate by PTP-A” value (shortened to “Hydrolysis”) (PTP-A [5]) was “only H-Ala-Phe-Pro-pNA was hydrolyzed”.
In the case of `CCN1C(=O)C=CC1=O` [N-Ethylmaleimide], the “Residual activity of DPP IV, %” value (DPP IV [1]) is reported as 100%, the “Effect” value (PTP-A [2]) is reported as “not” and the “Residual activity of PTP-A, %” value (PTP-A [2]) is reported as 98%.
For “H-Ser-Pro-↑-Tyr-Ser-Ser-Asp-Thr-Thr (SPYSSDTT) [Peptide 23]”, the “Cleavage site mediated by DPP IV” value (DPP IV [4]) was “H-Ser-Pro-↑-Tyr-Ser-Ser-Asp-Thr-Thr”.
“H-Pro-Asn-Pro-↓-Asn-Gln-Gly-Asn-Phe-Ile (PNPNQGNFI) [Peptide 13]” was tested, and the “Cleavage site mediated by PTP-A” value (PTP-A [3]) was “H-Pro-Asn-Pro-↓-Asn-Gln-Gly-Asn-Phe-Ile”.
For “H-Lys-Arg-Pro-Pro-Gly-Phe-Ser-Pro-Phe-Arg (KRPPGFSPFR; printed: Lys-Arg-Pro-Pro-Gly-Phe-Ser-Pro-Phe-Arg) [Peptide 3]”, the “Cleavage of peptide by PTP-A (in words)” value (PTP-A [3]) was “significant exception”.
Val-Pro was tested, and the “Residual activity of DPP IV, %” value (DPP IV [1]) was 1% and the “Residual activity of PTP-A, %” value (PTP-A [2]) was 100%.
`O=c1oc(Cl)c(Cl)c2ccccc12` [3,4-dichloroisocoumarin] was tested, and the “Residual activity of DPP IV, %” value (DPP IV [1]) was 100%, the “Growth of P. gingivalis” value (P. gingivalis) was “inhibits growth” and the “Effect” value (PTP-A [2]) was “only a poor inhibitor”. The “Residual activity of PTP-A, %” value (PTP-A [2]) was 200%.
In the case of albumin, the “Cleavage of protein by PTP-A (in words)” value (PTP-A [6]) is reported as “absence of any proteolytic activity”.
For “H-Ala-Arg-Pro-↓-Ala-D-Lys-amide (H-ARPA[dK]-NH2; SMILES C[C@H](N)C(=O)N[C@@H](CCCNC(=N)N)C(=O)N1CCC[C@H]1C(=O)N[C@@H](C)C(=O)N[C@H](CCCCN)C(N)=O) [Peptide 12]”, the “Cleavage site mediated by PTP-A” value (PTP-A [3]) was “H-Ala-Arg-Pro-↓-Ala-D-Lys-amide”.
For “H-Arg-Gly-Pro-↓-Phe-Pro-Ile (RGPFPI) [Peptide 11]”, the “Cleavage site mediated by PTP-A” value (PTP-A [3]) was “H-Arg-Gly-Pro-↓-Phe-Pro-Ile”.
In the case of “H-Arg-Pro-Pro-↓-Gly-Phe (RPPGF) [Peptide 2]”, the “Cleavage site mediated by PTP-A” value (PTP-A [3]) is reported as “H-Arg-Pro-Pro-↓-Gly-Phe”.
For H-Gly-Pro-pNA, the “Hydrolysis” value (PTP-A [5]) was “only H-Ala-Phe-Pro-pNA was hydrolyzed”.
In the case of `CC(=O)N[C@@H](CC(C)C)C(=O)N[C@@H](CC(C)C)C(=O)N[C@H](C=O)CCCNC(=N)N` [Leupeptin], the “Residual activity of DPP IV, %” value (DPP IV [1]) is reported as 20%, the “Effect” value (PTP-A [2]) is reported as “no effect at all” and the “Residual activity of PTP-A, %” value (PTP-A [2]) is reported as 100%.
With “H-Arg-His-Pro-↓-Lys-Tyr-Lys-Thr-Glu-Leu (RHPKYKTEL) [Peptide 14]” the “Cleavage site mediated by PTP-A” value (PTP-A [3]) was “H-Arg-His-Pro-↓-Lys-Tyr-Lys-Thr-Glu-Leu”.
With `O=S(=O)(F)Cc1ccccc1` [Phenylmethanesulfonyl fluoride] the “Effect” value (PTP-A [2]) was “no effect at all”.
For “H-Ala-Pro-↑-Val-Arg-Ser-Leu-Asn-Cys-Thr-Leu-Arg-Asp-Ser-Gln-Gln-Lys (APVRSLNCTLRDSQQK) [Peptide 24]”, the “Cleavage site mediated by DPP IV” value (DPP IV [4]) was “H-Ala-Pro-↑-Val-Arg-Ser-Leu-Asn-Cys-”.
For “Ac-Val-Pro-Pro-Gly-Glu-Asp-Ser-Lys (Ac-VPPGEDSK) [Peptide 9]”, the “Cleavage of peptide by PTP-A (in words)” value (PTP-A [3]) was “resistance to enzymatic hydrolysis”.
With interleukin 6: protein substrate the “Cleavage of protein by PTP-A (in words)” value (PTP-A [6]) was “able to cleave a tripeptide”.
In the case of Cbz-Ala-Pro-pNA, the “Hydrolysis” value (PTP-A [5]) is reported as “only H-Ala-Phe-Pro-pNA was hydrolyzed”.
For “H-Arg-Pro-↑-Lys-Pro-↑-Gln-Gln-Phe-Phe-Gly-Leu-Met-NH2 (H-RPKPQQFFGLM-NH2) [Peptide 6]”, the “Cleavage by DPP IV (in words)” value (DPP IV [4]) was “found to cleave” and the “Cleavage site mediated by DPP IV” value (DPP IV [4]) was “Pro-↑-Lys; also recorded: Pro-↑-Gln”.
In the case of “H-Val-Pro-Pro-↓-Gly-Glu-Asp-Ser-Lys (VPPGEDSK) [Peptide 8]”, the “Cleavage site mediated by PTP-A” value (PTP-A [3]) is reported as “H-Val-Pro-Pro-↓-Gly-Glu-Asp-Ser-Lys”.
“α1-proteinase inhibitor: Human plasma inhibitor” was tested, and the “Cleavage of protein by PTP-A (in words)” value (PTP-A [6]) was “nor were they cleaved by PTP-A” and the “Effect” value (PTP-A [2]) was “did not affect the enzyme activity”.
In the case of H-Pro-pNA, the “Hydrolysis” value (PTP-A [5]) is reported as “only H-Ala-Phe-Pro-pNA was hydrolyzed”.
For gelatin, the “Cleavage of protein by PTP-A (in words)” value (PTP-A [6]) was “absence of any proteolytic activity”.
With `Cl.NCCc1ccc(S(=O)(=O)F)cc1` [PEFABLOC SC, 4-(2-aminoethyl)-benzenesulfonyl-fluoride hydrochloride] the “Residual activity of DPP IV, %” value (DPP IV [1]) was 100%, the “P. gingivalis growth (OD600)” value (P. gingivalis; Pefabloc added at 0.5 mg/ml when the optical density began to increase) was “decreased growth” and the “P. gingivalis growth (OD600)” value (P. gingivalis; Pefabloc added at 2.0 mg/ml when the optical density began to increase) was “decreased growth”. For the same compound, the “Growth of P. gingivalis” value (P. gingivalis; treatment of cultures in lagphase and early logarithmic growth) was “inhibits growth”, the “Effect” value (PTP-A [2]) was “total loss of activity” and the “Residual activity of PTP-A, %” value (PTP-A [2]) was 56%.
In the case of “H-Gly-Val-Pro-↓-Lys-Thr-His-Leu-Glu-Leu (GVPKTHLEL) [Peptide 15]”, the “Cleavage site mediated by PTP-A” value (PTP-A [3]) is reported as “H-Gly-Val-Pro-↓-Lys-Thr-His-Leu-Glu-Leu”.
For “NH2-SAQTTRFSAADLNALMP (H-SAQTTRFSAADLNALMP; listed as Porphyromonas gingivalis) [SEQ ID NO:23]”, the “Cleavage by DPP IV (in words)” value (DPP IV [4]) was “found to cleave”.
For “H-Leu-Pro-↑-Asp-Leu-Asp-Ser-Ser-Leu-Ala-Ser-Ile-Gln-Glu-Leu-Leu-Ser-Pro-Gln-Glu-Pro-Pro-Arg-Pro-Pro-Glu-Ala (LPDLDSSLASIQELLSPQEPPRPPEA) [Peptide 20]”, the “Cleavage by DPP IV (in words)” value (DPP IV [4]) was “found to cleave” and the “Cleavage site mediated by DPP IV” value (DPP IV [4]) was “H-Leu-Pro-↑-Asp-Leu-Asp-Ser-Ser-Leu-Ala-”.
H-Ala-Phe-Pro-pNA was tested, and the “Hydrolysis” value (PTP-A [5]) was “hydrolyzed”.
In the case of “H-Val-Pro-Pro-↓-Gly-Glu-Asp-Ser-Lys-Glu-Val-Ala-Ala-Pro-His-Arg-Gln (VPPGEDSKEVAAPHRQ) [Peptide 7]”, the “Cleavage site mediated by PTP-A” value (PTP-A [3]) is reported as “H-Val-Pro-Pro-↓-Gly-Glu-Asp-Ser-Lys-Glu-”.
